Laboratory results reported in paper PMC10247784, “Physiological activation of human and mouse bitter taste receptors by bile acids” (Communications Biology, 2023).
“And” between values parts separate entries of the source, which are not always exact repeats. Equal values may be shown once.

Target: T1, human TAS2R4 (Homo sapiens, UniProt Q9NYW5)
T1 construct: expressed in transfected cells; host or cells: HEK293T-Gα16gust44
T1 sequence (Q9NYW5 1-299): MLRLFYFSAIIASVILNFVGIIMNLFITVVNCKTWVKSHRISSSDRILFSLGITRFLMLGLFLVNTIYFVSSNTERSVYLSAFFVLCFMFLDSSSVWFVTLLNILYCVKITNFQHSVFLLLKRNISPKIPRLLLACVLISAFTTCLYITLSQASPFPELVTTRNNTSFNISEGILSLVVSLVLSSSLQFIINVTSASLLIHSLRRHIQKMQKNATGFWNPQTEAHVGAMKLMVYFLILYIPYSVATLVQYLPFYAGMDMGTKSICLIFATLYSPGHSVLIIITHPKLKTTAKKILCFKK
Assay: Calcium imaging assay (FLIPR), HEK293T-Gα16gust44 cells transfected with human TAS2R4
Assay type: cell-based
Summary of the method: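 Bile acids from DMSO stocks are applied to dye-loaded cells one day after transient receptor transfection, and calcium-dependent fluorescence is recorded. Maximum signal is standardized to basal and normalized to buffer-only wells, with empty-vector signal subtracted.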

SMILES: C[C@H](CCC(=O)O)[C@H]1CC[C@H]2[C@@H]3[C@H](O)C[C@@H]4C[C@H](O)CC[C@]4(C)[C@H]3C[C@H](O)[C@]12C [Cholic Acid, cholic acid]
- Efficacy = maximal amplitude (ΔF/F) (TAS2R4, bile acids, mean): 0.1231
- Efficacy (maximal amplitude ΔF/F), individual data points (TAS2R4, bile acids, single replicates, listed as CA): 0.1201 and 0.127 and 0.1223
- RLU, fluorescence trace (Time (s) 0): 0 RLU
- RLU, fluorescence trace (Time (s) 2): 19.1006 RLU
- RLU, fluorescence trace (Time (s) 4): 0.3953 RLU
- RLU, fluorescence trace (Time (s) 6): 2.918 RLU
- RLU, fluorescence trace (Time (s) 8): 21.2897 RLU
- RLU, fluorescence trace (Time (s) 12): 0.674 RLU
- RLU, fluorescence trace (Time (s) 14): -1.277 RLU
- RLU, fluorescence trace (Time (s) 16): 19.6047 RLU
- RLU, fluorescence trace (Time (s) 18): 0.9534 RLU
- RLU, fluorescence trace (Time (s) 18.766 (TCA, TLCA: 18.782)): -8.812 RLU
- RLU, fluorescence trace (Time (s) 20.781 (TCA, TLCA: 20.782)): -52.2052 RLU
- RLU, fluorescence trace (Time (s) 22.781 (TCA, TLCA: 22.782)): 12.9621 RLU
- RLU, fluorescence trace (Time (s) 24.781 (TCA, TLCA: 24.782)): 16.2873 RLU
- RLU, fluorescence trace (Time (s) 26.781 (TCA, TLCA: 26.782)): 53.8077 RLU
- RLU, fluorescence trace (Time (s) 28.781 (TCA, TLCA: 28.782)): 116.69 RLU
- RLU, fluorescence trace (Time (s) 30.781 (TCA, TLCA: 30.782)): 202.767 RLU
- RLU, fluorescence trace (Time (s) 32.781 (TCA, TLCA: 32.782)): 286.976 RLU
- RLU, fluorescence trace (Time (s) 34.781 (TCA, TLCA: 34.782)): 331.157 RLU
- RLU, fluorescence trace (Time (s) 36.781 (TCA, TLCA: 36.782)): 398.002 RLU
- RLU, fluorescence trace (Time (s) 38.781 (TCA, TLCA: 38.782)): 447.116 RLU
- RLU, fluorescence trace (Time (s) 40.781 (TCA, TLCA: 40.782)): 484.385 RLU
- RLU, fluorescence trace (Time (s) 42.781 (TCA, TLCA: 42.782)): 513.813 RLU
- RLU, fluorescence trace (Time (s) 44.781 (TCA, TLCA: 44.782)): 571.4 RLU
- RLU, fluorescence trace (Time (s) 46.781 (TCA, TLCA: 46.782)): 576.681 RLU
- RLU, fluorescence trace (Time (s) 48.781 (TCA, TLCA: 48.782)): 621.92 RLU
- RLU, fluorescence trace (Time (s) 50.781 (TCA, TLCA: 50.782)): 628.153 RLU
- RLU, fluorescence trace (Time (s) 52.781 (TCA, TLCA: 52.782)): 608.216 RLU
- RLU, fluorescence trace (Time (s) 54.781 (TCA, TLCA: 54.782)): 673.422 RLU
- RLU, fluorescence trace (Time (s) 56.781 (TCA, TLCA: 56.782)): 649.648 RLU
- RLU, fluorescence trace (Time (s) 58.781 (TCA, TLCA: 58.782)): 665.81 RLU
- RLU, fluorescence trace (Time (s) 60.781 (TCA, TLCA: 60.782)): 679.484 RLU
- RLU, fluorescence trace (Time (s) 62.781 (TCA, TLCA: 62.782)): 679.42 RLU
- RLU, fluorescence trace (Time (s) 64.781 (TCA, TLCA: 64.782)): 662.359 RLU
- RLU, fluorescence trace (Time (s) 66.781 (TCA, TLCA: 66.782)): 681.18 RLU
- RLU, fluorescence trace (Time (s) 68.781 (TCA, TLCA: 68.782)): 661.786 RLU
- RLU, fluorescence trace (Time (s) 70.781 (TCA, TLCA: 70.782)): 663.821 RLU
- RLU, fluorescence trace (Time (s) 72.781 (TCA, TLCA: 72.782)): 677.656 RLU
- RLU, fluorescence trace (Time (s) 74.781 (TCA, TLCA: 74.782)): 687.298 RLU
- RLU, fluorescence trace (Time (s) 76.781 (TCA, TLCA: 76.782)): 685.082 RLU
- RLU, fluorescence trace (Time (s) 78.781 (TCA, TLCA: 78.782)): 661.065 RLU
- RLU, fluorescence trace (Time (s) 80.781 (TCA, TLCA: 80.782)): 659.476 RLU
- RLU, fluorescence trace (Time (s) 82.781 (TCA, TLCA: 82.782)): 652.14 RLU
- RLU, fluorescence trace (Time (s) 84.781 (TCA, TLCA: 84.782)): 621.974 RLU
- RLU, fluorescence trace (Time (s) 86.781 (TCA, TLCA: 86.782)): 644.971 RLU
- RLU, fluorescence trace (Time (s) 88.781 (TCA, TLCA: 88.782)): 652.467 RLU
- RLU, fluorescence trace (Time (s) 90.781 (TCA, TLCA: 90.782)): 634.908 RLU
- RLU, fluorescence trace (Time (s) 92.781 (TCA, TLCA: 92.782)): 616.215 RLU
- RLU, fluorescence trace (Time (s) 94.781 (TCA, TLCA: 94.782)): 623.143 RLU
- RLU, fluorescence trace (Time (s) 96.781 (TCA, TLCA: 96.782)): 577.048 RLU
- RLU, fluorescence trace (Time (s) 98.781 (TCA, TLCA: 98.782)): 590.83 RLU
- RLU, fluorescence trace (Time (s) 100.781 (TCA, TLCA: 100.782)): 594.46 RLU
- RLU, fluorescence trace (Time (s) 102.781 (TCA, TLCA: 102.782)): 570.853 RLU
- RLU, fluorescence trace (Time (s) 104.781 (TCA, TLCA: 104.782)): 535.832 RLU
- RLU, fluorescence trace (Time (s) 106.781 (TCA, TLCA: 106.782)): 576.036 RLU
- RLU, fluorescence trace (Time (s) 108.781 (TCA, TLCA: 108.782)): 552.984 RLU
- RLU, fluorescence trace (Time (s) 110.781 (TCA, TLCA: 110.782)): 539.61 RLU
- RLU, fluorescence trace (Time (s) 112.781 (TCA, TLCA: 112.782)): 529.912 RLU
- RLU, fluorescence trace (Time (s) 114.781 (TCA, TLCA: 114.782)): 525.649 RLU
- RLU, fluorescence trace (Time (s) 116.781 (TCA, TLCA: 116.782)): 514.781 RLU
- RLU, fluorescence trace (Time (s) 118.781 (TCA, TLCA: 118.782)): 515.049 RLU
- RLU, fluorescence trace (Time (s) 120.781 (TCA, TLCA: 120.782)): 488.175 RLU
- RLU, fluorescence trace (Time (s) 122.781 (TCA, TLCA: 122.782)): 489.541 RLU
- RLU, fluorescence trace (Time (s) 124.781 (TCA, TLCA: 124.782)): 470.085 RLU
- RLU, fluorescence trace (Time (s) 126.781 (TCA, TLCA: 126.782)): 464.513 RLU
- RLU, fluorescence trace (Time (s) 128.781 (TCA, TLCA: 128.782)): 464.071 RLU
- RLU, fluorescence trace (Time (s) 130.781 (TCA, TLCA: 130.782)): 466.285 RLU
- RLU, fluorescence trace (Time (s) 132.781 (TCA, TLCA: 132.782)): 460.578 RLU
- RLU, fluorescence trace (Time (s) 134.781 (TCA, TLCA: 134.782)): 427.673 RLU
- RLU, fluorescence trace (Time (s) 136.781 (TCA, TLCA: 136.782)): 445.361 RLU
- RLU, fluorescence trace (Time (s) 137.547): 436.003 RLU
- RLU, fluorescence trace (Time (s) 143.547): 408.618 RLU
- RLU, fluorescence trace (Time (s) 149.547): 386.336 RLU
- RLU, fluorescence trace (Time (s) 155.547): 351.767 RLU
- RLU, fluorescence trace (Time (s) 161.547): 346.602 RLU
- RLU, fluorescence trace (Time (s) 167.547): 335.172 RLU
- RLU, fluorescence trace (Time (s) 173.547): 264.873 RLU
- RLU, fluorescence trace (Time (s) 179.547): 265.3 RLU
- RLU, fluorescence trace (Time (s) 185.547): 242.782 RLU
- RLU, fluorescence trace (Time (s) 191.547): 246.932 RLU
- RLU, fluorescence trace (Time (s) 197.547): 258.506 RLU
- RLU, fluorescence trace (Time (s) 203.547): 232.756 RLU
- RLU, fluorescence trace (Time (s) 209.547): 219.78 RLU
- RLU, fluorescence trace (Time (s) 215.547): 251.011 RLU
- RLU, fluorescence trace (Time (s) 221.547): 260.591 RLU
- RLU, fluorescence trace (Time (s) 227.547): 271.039 RLU
- RLU, fluorescence trace (Time (s) 233.547): 291.66 RLU
- RLU, fluorescence trace (Time (s) 239.547): 269.732 RLU
- RLU, fluorescence trace (Time (s) 245.547): 266.514 RLU
- RLU, fluorescence trace (Time (s) 293.547): 239.384 RLU
- RLU, fluorescence trace (Time (s) 299.547): 250.874 RLU
- RLU, fluorescence trace (Time (s) 305.547): 250.223 RLU
- RLU, fluorescence trace (Time (s) 311.547): 248.529 RLU
- RLU, fluorescence trace (Time (s) 317.547): 268.105 RLU
- RLU, fluorescence trace (Time (s) 323.547): 278.662 RLU
- RLU, fluorescence trace (Time (s) 329.547): 259.586 RLU
- RLU, fluorescence trace (Time (s) 335.547): 285.984 RLU
- RLU, fluorescence trace (Time (s) 341.547): 283.853 RLU
- RLU, fluorescence trace (Time (s) 347.547): 275.523 RLU
- RLU, fluorescence trace (Time (s) 353.547): 309.056 RLU
- RLU, fluorescence trace (Time (s) 359.547): 277.364 RLU
- Activation threshold concentration TAS2R4 (lowest concentration with significantly increased fluorescence vs empty vector (p < 0.01)): 30 µM
